Values quoted from earlier work, collected in patent US20190216952A1, “Method for substantiating validating products for environmental safety” (priority 2018, published 2019).

Legend:
coral [1] = conditions: Danovaro et al 2008
coral [2] = conditions: Downs et al

Row | SMILES | coral bleaching/death (coral [1]) | toxicity in coral (coral [2])
1 | CCCCOC(=O)c1ccc(O)cc1 [Butylparaben] | caused coral bleaching/death | 
2 | Cc1ccc(C=C2C(=O)C3(C)CCC2C3(C)C)cc1 (centres unmarked) [4-Methylbenzylidene Camphor] | caused coral bleaching/death | 
3 | CCCCC(CC)COC(=O)C=Cc1ccc(OC)cc1 (centres unmarked) [Octinoxate] | caused coral bleaching/death | 
4 | COc1ccc(C(=O)c2ccccc2)c(O)c1 [Oxybenzone] | caused coral bleaching/death | toxicity
